Results reported in patent US12419862B2, “Use of a cathepsin s inhibitor against the formation of anti-drug antibodies” (Hoffmann-La Roche Inc., priority 2018, dated 2025).

How the values were obtained:
[1] = tested on: adalimumab-specific IgG response; experiment: ADA against adalimumab in hIgG1 Tg mice over time, ELISA (Example 3, 63 days); format: in vivo, C57BL/6-Tg (hIgG1,k,l) mice; conditions: 40 mg/kg/day via food admix from one day before first immunization until day 28, blood samples to day 56, vs vehicle
Protocol: 15-week-old female mice C57BL/6-Tg (hIgG1,k,l) were purchased from Taconic (Denmark) and housed at the animal facilities in room with air-conditioned under a 12 hours light/dark cycle in macrolon boxes with enriched environment and free access to water and food. 7×10 μg of Humira (Adalimumab, Abbvie Germany GmbH) were injected at day 0, 4, 7, 11, 14, 18 and 21 subcutaneously in the right flank or the left flank alternatively. The dosage of (2S,4R)-4-[4-(1-methyl-1H-pyrazol-4-yl)-2-trifluoromethyl-benzenesulfonyl]-1-(1-trifluoromethyl-cyclopropanecarbonyl)-pyrrolidine-2-carboxylic acid (1-cyano-cyclopropyl)-amide consumption was 40 mg/kg/day. (2S,4R)-4-[4-(1-methyl-1H-pyrazol-4-yl)-2-trifluoromethyl-benzenesulfonyl]-1-(1-trifluoromethyl-cyclopropanecarbonyl)-pyrrolidine-2-carboxylic acid (1-cyano-cyclopropyl)-amide was given via food admix (Ssniff Spezialdiäten, Germany) daily from one day before the first Humira immunization until day 28. […]
Nunc Maxisorp flat-bottom 96 well ELISA plates were coated with 100 μl per well of Humira or CEA-PGLALA respectively at 5 μg/mL in NaHCO3100 mM buffer overnight at +4° C. […] 100 μl of substrate P-nitrophenyl phosphate ready to use (Life Technologies, Cat no 002212) were added per well and after 10 min incubation at room temperature, the OD at 405 nm was read as an end-point measurement with a Versamax ELISA reader.

[2] = tested on: TCRβ+CD8+ T cells and NK1.1+ NKp46+ NK cells; experiment: PD effect of CEA-IL2v in blood, flow cytometry of CD8 T cells and NK cells (Example 5); format: in vivo; conditions: mice of Example 4; cathepsin S inhibitor 40 mg/kg/day vs vehicle
Protocol: 15-week-old mice C57BL/6-Tg (hIgG1,k,l) and C57BL/6 wild type mixed gender were purchased from Taconic (Denmark) and housed at the animal facilities in room with air-conditioned under a 12 hours light/dark cycle in macrolon boxes with enriched environment and free access to water and food. 7×10 μg of CEA-IL2v (Batch no GLI0144-01) were injected at day 0, 4, 7, 11, 14, 18 and 21 for the primary response, and at day 49, 53, 56 and 60 for the memory response. The CEA-112v injections were done subcutaneously in the right flank or the left flank alternatively. The dosage of (2S,4R)-4-[4-(1-methyl-1H-pyrazol-4-yl)-2-trifluoromethyl-benzenesulfonyl]-1-(1-trifluoromethyl-cyclopropanecarbonyl)-pyrrolidine-2-carboxylic acid (1-cyano-cyclopropyl)-amide consumption was 40 mg/kg/day. […]
From Example 4, 50 μl of lithium heparin whole blood were transferred into a 5 ml polystyrene round-bottom tubes (BD Falcon, Cat. no 352058) and 2 ml of freshly prepared 1× Pharm Lyse™ lysing buffer (BD Bioscience, Cat. no 555899) with UltraPur™ distilled water (Invitrogen, Cat. no 10977-035) were added. […] Data were acquired with the BD FACSDiva software v8.0 on BD LSRFortessa™ cytometer and analyzed with FlowJo™ V10.

## Cn1cc(-c2ccc(S(=O)(=O)[C@@H]3C[C@@H](C(=O)NC4(C#N)CC4)N(C(=O)C4(C(F)(F)F)CC4)C3)c(C(F)(F)F)c2)cn1 [cathepsin S inhibitor, (2S,4R)-4-[4-(1-methyl-1H-pyrazol-4-yl)-2-trifluoromethyl-benzenesulfonyl]-1-(1-trifluoromethyl-cyclopropanecarbonyl)-pyrrolidine-2-carboxylic acid (1-cyano-cyclopropyl)-amide]
[1]
  ADA to adalimumab (adalimumab-specific IgG) over time: reduces ADA to adalimumab
[2]
  Effect on CEA-IL2v pharmacology (percentages of CD8 T cells and NK cells in blood): CEA-112v pharmacology is preserved
